Numbered stars: 1 amine (or outer) side, 2 acyl side, 3 side chain; on linkers, the order of the positions; unused ones are H or OH. Side chains are listed from the residue outwards. Peptide text beside a SMILES is read from it. * marks the point of attachment. C18 diacid = O=C(O)CCCCCCCCCCCCCCCCC(=O)*; γGlu = O=C(O)[C@H](CCC(=O)[*:2])N[*:1]; AEEA = NCCOCCOCC(=O)O

The test deals with glucagon receptor (Homo sapiens, UniProt P47871). Description: cell-based.
Sequence of glucagon receptor (P47871 26-477): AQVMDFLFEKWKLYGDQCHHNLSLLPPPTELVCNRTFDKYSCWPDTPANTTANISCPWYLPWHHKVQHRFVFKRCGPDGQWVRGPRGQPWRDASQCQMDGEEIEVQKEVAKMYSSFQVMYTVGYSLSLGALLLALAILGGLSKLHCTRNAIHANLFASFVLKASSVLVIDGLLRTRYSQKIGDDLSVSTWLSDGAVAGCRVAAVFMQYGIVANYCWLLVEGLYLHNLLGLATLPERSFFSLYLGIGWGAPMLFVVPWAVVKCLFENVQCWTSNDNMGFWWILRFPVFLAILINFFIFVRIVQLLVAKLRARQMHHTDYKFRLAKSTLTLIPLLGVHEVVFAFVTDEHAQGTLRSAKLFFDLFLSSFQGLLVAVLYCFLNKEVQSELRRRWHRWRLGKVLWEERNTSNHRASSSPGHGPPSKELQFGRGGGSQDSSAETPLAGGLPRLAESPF
`CC(C)C[C@H](NC(=O)[C@H](Cc1ccc(O)cc1)NC(=O)[C@H](CCCCN)NC(=O)[C@H](CO)NC(=O)[C@H](Cc1ccc(O)cc1)NC(=O)[C@H](CC(=O)O)NC(=O)[C@H](CO)NC(=O)[C@@H](NC(=O)[C@H](Cc1ccccc1)NC(=O)[C@@H](NC(=O)CNC(=O)[C@H](CCC(N)=O)NC(=O)[C@H](CO)NC(=O)[C@@H](N)Cc1c[nH]cn1)[C@@H](C)O)[C@@H](C)O)C(=O)N[C@@H](CC(=O)O)C(=O)N[C@@H](CO)C(=O)N[C@@H](CCCNC(=N)N)C(=O)N[C@@H](CCCNC(=N)N)C(=O)N[C@@H](C)C(=O)N[C@@H](CCC(N)=O)C(=O)N[C@@H](CC(=O)O)C(=O)N[C@@H](Cc1ccccc1)C(=O)N[C@H](C(=O)N[C@@H](CCC(N)=O)C(=O)N[C@@H](Cc1c[nH]c2ccccc12)C(=O)N[C@@H](CC(C)C)C(=O)N[C@@H](CC(C)C)C(=O)N[C@@H](CCCCNC(=O)CC[C@H](NC(=O)COCCOCCNC(=O)COCCOCCNC(=O)CC[C@H](NC(=O)CC[C@H](NC(=O)CCCCCCCCCCCCCCCCC(=O)O)C(=O)O)C(=O)O)C(=O)O)C(=O)N[C@H](C(=O)O)[C@@H](C)O)C(C)C` [Example 66, N^ε28-[(4S)-4-carboxy-4-[[2-[2-[2-[[2-[2-[2-[[(4S)-4-carboxy-4-[[(4S)-4-carboxy-4-(17-carboxyheptadecanoylamino)butanoyl]amino]butanoyl]amino]ethoxy]ethoxy]acetyl]amino]ethoxy]ethoxy]acetyl]amino]butanoyl]-[Leu^27,Lys^28]-Glucagon]: the response was half-maximal at 0.093 nM (EC50). This lies in the picomolar range.

Take `CC(C)C[C@H](NC(=O)[C@H](Cc1ccc(O)cc1)NC(=O)[C@H](CCCCN)NC(=O)[C@H](CO)NC(=O)[C@H](Cc1ccc(O)cc1)NC(=O)[C@H](CC(=O)O)NC(=O)[C@H](CO)NC(=O)[C@@H](NC(=O)[C@H](Cc1ccccc1)NC(=O)[C@@H](NC(=O)CNC(=O)[C@H](CCC(N)=O)NC(=O)[C@H](CO)NC(=O)[C@@H](N)Cc1c[nH]cn1)[C@@H](C)O)[C@@H](C)O)C(=O)N[C@@H](CC(=O)O)C(=O)N[C@@H](CO)C(=O)N[C@@H](CCCNC(=N)N)C(=O)N[C@@H](CCCNC(=N)N)C(=O)N[C@@H](C)C(=O)N[C@@H](CCC(N)=O)C(=O)N[C@@H](CC(=O)O)C(=O)N[C@@H](Cc1ccccc1)C(=O)N[C@H](C(=O)N[C@@H](CCC(N)=O)C(=O)N[C@@H](Cc1c[nH]c2ccccc12)C(=O)N[C@@H](CC(C)C)C(=O)N[C@@H](CC(C)C)C(=O)N[C@@H](CCCCNC(=O)COCCOCCNC(=O)COCCOCCNC(=O)CC[C@H](NC(=O)CC[C@H](NC(=O)CC[C@H](NC(=O)CCCCCCCCCCCCCCCCC(=O)O)C(=O)O)C(=O)O)C(=O)O)C(=O)N[C@H](C(=O)O)[C@@H](C)O)C(C)C` [Example 67, N^ε28-[2-[2-[2-[[2-[2-[2-[[(4S)-4-carboxy-4-[[(4S)-4-carboxy-4-[[(4S)-4-carboxy-4-(17-carboxyheptadecanoylamino)butanoyl]amino]butanoyl]amino]butanoyl]amino]ethoxy]ethoxy]acetyl]amino]ethoxy]ethoxy]acetyl]-[Leu^27,Lys^28]-Glucagon]: the EC50 (in general, the concentration needed to bring the measured effect to its halfway point) came out at 0.116 nM.

As for `CC(C)C[C@H](NC(=O)[C@H](Cc1ccc(O)cc1)NC(=O)[C@H](CCCCN)NC(=O)[C@H](CO)NC(=O)[C@H](Cc1ccc(O)cc1)NC(=O)[C@H](CC(=O)O)NC(=O)[C@H](CO)NC(=O)[C@@H](NC(=O)[C@H](Cc1ccccc1)NC(=O)[C@@H](NC(=O)CNC(=O)[C@H](CCC(N)=O)NC(=O)[C@H](CO)NC(=O)[C@@H](N)Cc1c[nH]cn1)[C@@H](C)O)[C@@H](C)O)C(=O)N[C@@H](CC(=O)O)C(=O)N[C@@H](CO)C(=O)N[C@@H](CCCNC(=N)N)C(=O)N[C@@H](CCCNC(=N)N)C(=O)N[C@@H](C)C(=O)N[C@@H](CCC(N)=O)C(=O)N[C@@H](CC(=O)O)C(=O)N[C@@H](Cc1ccccc1)C(=O)N[C@H](C(=O)N[C@@H](CCCCNC(=O)CC[C@H](NC(=O)COCCOCCNC(=O)COCCOCCNC(=O)CC[C@H](NC(=O)CC[C@H](NC(=O)CCCCCCCCCCCCCCCCC(=O)O)C(=O)O)C(=O)O)C(=O)O)C(=O)N[C@@H](Cc1c[nH]c2ccccc12)C(=O)N[C@@H](CC(C)C)C(=O)N[C@@H](CC(C)C)C(=O)N[C@@H](CO)C(=O)N[C@H](C(=O)O)[C@@H](C)O)C(C)C` [Example 68, N^ε24-[(4S)-4-carboxy-4-[[2-[2-[2-[[2-[2-[2-[[(4S)-4-carboxy-4-[[(4S)-4-carboxy-4-(17-carboxyheptadecanoylamino)butanoyl]amino]butanoyl]amino]ethoxy]ethoxy]acetyl]amino]ethoxy]ethoxy]acetyl]amino]butanoyl]-[Lys^24,Leu^27,Ser^28]-Glucagon], the EC50 turned out to be 0.106 nM.

Regarding `CC(C)C[C@H](NC(=O)[C@H](Cc1ccc(O)cc1)NC(=O)[C@H](CCCCN)NC(=O)[C@H](CO)NC(=O)[C@H](Cc1ccc(O)cc1)NC(=O)[C@H](CC(=O)O)NC(=O)[C@H](CO)NC(=O)[C@@H](NC(=O)[C@H](Cc1ccccc1)NC(=O)[C@@H](NC(=O)CNC(=O)[C@H](CCC(N)=O)NC(=O)[C@H](CO)NC(=O)[C@@H](N)Cc1c[nH]cn1)[C@@H](C)O)[C@@H](C)O)C(=O)N[C@@H](CC(=O)O)C(=O)N[C@@H](CO)C(=O)N[C@@H](CCCNC(=N)N)C(=O)N[C@@H](CCCNC(=N)N)C(=O)N[C@@H](C)C(=O)N[C@@H](CCC(N)=O)C(=O)N[C@@H](CC(=O)O)C(=O)N[C@@H](Cc1ccccc1)C(=O)N[C@H](C(=O)N[C@@H](CCCCNC(=O)COCCOCCNC(=O)COCCOCCNC(=O)CC[C@H](NC(=O)CC[C@H](NC(=O)CC[C@H](NC(=O)CCCCCCCCCCCCCCCCC(=O)O)C(=O)O)C(=O)O)C(=O)O)C(=O)N[C@@H](Cc1c[nH]c2ccccc12)C(=O)N[C@@H](CC(C)C)C(=O)N[C@@H](CC(C)C)C(=O)N[C@@H](CO)C(=O)N[C@H](C(=O)O)[C@@H](C)O)C(C)C` [Example 69, N^ε24-[2-[2-[2-[[2-[2-[2-[[(4S)-4-carboxy-4-[[(4S)-4-carboxy-4-[[(4S)-4-carboxy-4-(17-carboxyheptadecanoylamino)butanoyl]amino]butanoyl]amino]butanoyl]amino]ethoxy]ethoxy]acetyl]amino]ethoxy]ethoxy]acetyl]-[Lys^24,Leu^27,Ser^28]-Glucagon], the EC50 came out at 0.115 nM.

On to `CC(C)C[C@H](NC(=O)[C@H](Cc1ccc(O)cc1)NC(=O)[C@H](CCCCN)NC(=O)[C@H](CO)NC(=O)[C@H](Cc1ccc(O)cc1)NC(=O)[C@H](CC(=O)O)NC(=O)[C@H](CO)NC(=O)[C@@H](NC(=O)[C@H](Cc1ccccc1)NC(=O)[C@@H](NC(=O)CNC(=O)[C@H](CCC(N)=O)NC(=O)[C@H](CO)NC(=O)[C@@H](N)Cc1c[nH]cn1)[C@@H](C)O)[C@@H](C)O)C(=O)N[C@@H](CC(=O)O)C(=O)N[C@@H](CCCCNC(=O)CC[C@H](NC(=O)CC[C@H](NC(=O)COCCOCCNC(=O)COCCOCCNC(=O)CC[C@H](NC(=O)CCCCCCCCCCCCCCCCC(=O)O)C(=O)O)C(=O)O)C(=O)O)C(=O)N[C@@H](CCCNC(=N)N)C(=O)N[C@@H](CCCNC(=N)N)C(=O)N[C@@H](C)C(=O)N[C@@H](CCC(N)=O)C(=O)N[C@@H](CC(=O)O)C(=O)N[C@@H](Cc1ccccc1)C(=O)N[C@H](C(=O)N[C@@H](CCC(N)=O)C(=O)N[C@@H](Cc1c[nH]c2ccccc12)C(=O)N[C@@H](CC(C)C)C(=O)N[C@@H](CC(C)C)C(=O)N[C@@H](CC(N)=O)C(=O)N[C@H](C(=O)O)[C@@H](C)O)C(C)C` [Example 70, N^ε16-[(4S)-4-carboxy-4-[[(4S)-4-carboxy-4-[[2-[2-[2-[[2-[2-[2-[[(4S)-4-carboxy-4-(17-carboxyheptadecanoylamino)butanoyl]amino]ethoxy]ethoxy]acetyl]amino]ethoxy]ethoxy]acetyl]amino]butanoyl]amino]butanoyl]-[Lys^16,Leu^27]-Glucagon] (H-HSQGTFTSDYSKYLDK([γGlu-γGlu-AEEA-AEEA-γGlu-C18 diacid])RRAQDFVQWLLNT-OH; N-terminus and C-terminus assumed), for which the midpoint of the response, the EC50, lay at 0.105 nM.

In turn, `CC(C)C[C@H](NC(=O)[C@H](Cc1ccc(O)cc1)NC(=O)[C@H](CCCNC(=N)N)NC(=O)[C@H](CO)NC(=O)[C@H](Cc1ccc(O)cc1)NC(=O)[C@H](CC(=O)O)NC(=O)[C@H](CO)NC(=O)[C@@H](NC(=O)[C@H](Cc1ccccc1)NC(=O)[C@@H](NC(=O)CNC(=O)[C@H](CCC(N)=O)NC(=O)[C@H](CO)NC(=O)[C@@H](N)Cc1c[nH]cn1)[C@@H](C)O)[C@@H](C)O)C(=O)N[C@@H](CC(=O)O)C(=O)N[C@@H](CO)C(=O)N[C@@H](CCCNC(=N)N)C(=O)N[C@@H](CCCNC(=N)N)C(=O)N[C@@H](C)C(=O)N[C@@H](CCC(N)=O)C(=O)N[C@@H](CC(=O)O)C(=O)N[C@@H](Cc1ccccc1)C(=O)N[C@H](C(=O)N[C@@H](CCCCNC(=O)CC[C@H](NC(=O)CC[C@H](NC(=O)COCCOCCNC(=O)COCCOCCNC(=O)CC[C@H](NC(=O)CCCCCCCCCCCCCCCCC(=O)O)C(=O)O)C(=O)O)C(=O)O)C(=O)N[C@@H](Cc1c[nH]c2ccccc12)C(=O)N[C@@H](CC(C)C)C(=O)N[C@@H](CC(C)C)C(=O)N[C@@H](CC(N)=O)C(=O)N[C@H](C(=O)O)[C@@H](C)O)C(C)C` [Example 72, N^ε24-[(4S)-4-carboxy-4-[[(4S)-4-carboxy-4-[[2-[2-[2-[[2-[2-[2-[[(4S)-4-carboxy-4-(17-carboxyheptadecanoylamino)butanoyl]amino]ethoxy]ethoxy]acetyl]amino]ethoxy]ethoxy]acetyl]amino]butanoyl]amino]butanoyl]-[Arg^12,Lys^24,Leu^27]-Glucagon] (H-HSQGTFTSDYSRYLDSRRAQDFVK([γGlu-γGlu-AEEA-AEEA-γGlu-C18 diacid])WLLNT-OH; N-terminus and C-terminus assumed) returned an EC50 of 0.127 nM.

The record behind these values is patent US20160271263A1 (Novo Nordisk A/S, priority 2010, published 2016).
